# Measurements reported in article PMC11024961, “Effects of Chrysin and Chrysin-7-sulfate on Ochratoxin A-Albumin Interactions and on the Plasma and Kidney Levels of the Mycotoxin in Rats” (ACS Omega, 2024).
# pKd: −log10 of the molar value. “And” between values parts separate entries of the source, which are not always exact repeats. Equal values may be shown once.
# Tests used:
# [1] = target: T1, human serum albumin (HSA) (Homo sapiens, UniProt P02768); experiment: Fluorescence anisotropy of OTA-HSA with ligands; format: binding
# T1 construct: purchased Merck (Darmstadt, Germany) A1653
# T1 sequence (P02768 25-609): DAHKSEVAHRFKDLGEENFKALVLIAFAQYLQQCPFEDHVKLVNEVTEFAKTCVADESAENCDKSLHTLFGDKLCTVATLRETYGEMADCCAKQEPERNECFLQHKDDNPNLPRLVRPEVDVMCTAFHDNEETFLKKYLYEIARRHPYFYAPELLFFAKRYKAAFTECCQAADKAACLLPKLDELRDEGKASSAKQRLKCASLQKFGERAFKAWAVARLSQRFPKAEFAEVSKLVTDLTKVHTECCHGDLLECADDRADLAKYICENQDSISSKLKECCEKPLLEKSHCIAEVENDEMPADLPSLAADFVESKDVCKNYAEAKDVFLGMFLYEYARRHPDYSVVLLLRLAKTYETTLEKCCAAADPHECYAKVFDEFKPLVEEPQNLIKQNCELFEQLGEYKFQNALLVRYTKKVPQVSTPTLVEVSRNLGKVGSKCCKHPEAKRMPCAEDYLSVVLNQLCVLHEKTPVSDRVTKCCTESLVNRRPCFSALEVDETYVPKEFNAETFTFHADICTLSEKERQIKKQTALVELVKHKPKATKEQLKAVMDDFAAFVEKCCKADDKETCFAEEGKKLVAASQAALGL
# Description: (§1) Fluorescence spectroscopic studies were carried out using a Hitachi F-4500 spectrofluorometer (Tokyo, Japan). Fluorescence emission spectra were collected, and fluorescence anisotropy values were determined in phosphate-buffered saline (PBS, pH 7.4) at room temperature, using 393 and 446 nm as excitation and emission wavelengths, respectively. […] Absorption spectra of ligand molecules were also recorded employing a Jasco V730 UV–vis spectrophotometer (Tokyo, Japan), after which their inner-filter effects were corrected using the following equation:[28],[29] [drawing 1] 1 where Icor and Iobs are the corrected and the observed fluorescence emission intensities at 446 nm, respectively, while Aex and Aem are the absorbance values of the competitor ligand molecules at 393 and 446 nm, respectively.
# (§2) Fluorescence anisotropy (r) values were calculated employing the following equation:[10],[30] [drawing 2] 2 where IVV is the emission intensity measured in vertical positions of the polarizers at both the presample and the postsample sites, IVH is the emission intensity measured in vertical position of the polarizer at presample site and in horizontal position of the polarizer at the postsample site, while G is the instrumental factor (showing the preference of the emission optics for the horizontal orientation to the vertical orientation).
# [2] = target: T1, human serum albumin (HSA); experiment: Fluorescence emission intensity of OTA-HSA with ligands; format: binding; conditions: ligand 0–30 μM; OTA 1.0 μM, HSA 1.5 μM; λex 393 nm, λem 446 nm; inner-filter corrected
# Description: as §1
# [3] = target: T2, rat serum albumin (RSA) (Rattus norvegicus, UniProt P02770); experiment: biochemical; format: binding
# T2 construct: purchased Merck (Darmstadt, Germany) A6272
# T2 sequence (P02770 25-608): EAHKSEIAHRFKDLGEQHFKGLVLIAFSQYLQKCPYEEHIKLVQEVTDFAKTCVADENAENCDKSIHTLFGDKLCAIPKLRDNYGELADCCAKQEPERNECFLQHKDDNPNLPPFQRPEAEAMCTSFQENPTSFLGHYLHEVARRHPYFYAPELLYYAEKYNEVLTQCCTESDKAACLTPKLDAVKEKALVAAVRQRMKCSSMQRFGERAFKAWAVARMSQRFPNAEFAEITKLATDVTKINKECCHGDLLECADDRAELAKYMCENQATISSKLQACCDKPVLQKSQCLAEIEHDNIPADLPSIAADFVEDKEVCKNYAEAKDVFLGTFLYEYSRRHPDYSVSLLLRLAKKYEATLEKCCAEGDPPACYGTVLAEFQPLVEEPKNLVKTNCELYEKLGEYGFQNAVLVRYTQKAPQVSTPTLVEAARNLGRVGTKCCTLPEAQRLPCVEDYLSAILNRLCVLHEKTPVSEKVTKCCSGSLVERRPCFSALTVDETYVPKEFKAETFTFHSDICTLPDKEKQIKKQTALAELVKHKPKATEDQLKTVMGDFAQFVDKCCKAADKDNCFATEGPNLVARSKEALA
# Description: (§3) Albumin (with the bound ligand molecules) was sedimented with ultracentrifugation, employing the previously described method.[26],[29],[31] […] These solutions (900 μL) were centrifuged for 16 h at 170,000g and 20 °C, using an Optima MAX-XP tabletop ultracentrifuge (with an MLA-130 fixed-angle rotor; Beckman Coulter, Brea, CA, US). After 200 μL of the protein-free supernatant was carefully aspirated, the free unbound concentration of OTA was directly analyzed from the supernatant by HPLC-FLD (details in Section 2.6). Association constants (Ka) of OTA-HSA and OTA-RSA complexes were calculated based on the following equation, assuming 1:1 stoichiometry of the complex formation:[29],[32] [drawing 3] 3 where [OTA] is the concentration of the unbound free mycotoxin, [SA] is the concentration of the unbound free serum albumin, while [OTA-SA] is the molar concentration of the mycotoxin-albumin complex in the solution.
# (§4) OTA was quantified with the previously reported HPLC-FLD method,[48] employing an integrated HPLC system (Jasco, Tokyo, Japan): autosampler (AS-4050), binary pump (PU-4180), fluorescence detector (FP-920), and ChromNAV2 software. Briefly, the isocratic elution was performed with 1.0 mL/min flow rate at room temperature, using sodium borate buffer (0.01 M, pH 10.0) and ACN (87:13 v/v%) as the mobile phase. Samples (20 μL) were driven through a SecurityGuard precolumn (C18, 4.0 × 3.0 mm; Phenomenex, Torrance, CA, US) linked to a Kinetex EVO (C18, 150 × 4.6 mm, 5 μm; Phenomenex) analytical column. The fluorescence detection of the mycotoxin was carried out at 383 and 446 nm excitation and emission wavelengths, respectively.
# [4] = target: T1, human serum albumin (HSA); experiment: biochemical; format: binding; conditions: for unbound fraction of OTA with HSA: OTA 1.0 μM, HSA 1.5 μM, PBS pH 7.4
# Description: as §3, §4
# [5] = system: HSA; parameters: method as in PMID 30562928; conditions: cited from earlier work
# [6] = Plasma and kidney levels of OTA after single i.v. OTA with or without C7S; format: in vivo, Wistar rats
# Description: (§5) Male Wistar rats were obtained from Toxi-Coop Ltd. (Budapest, Hungary). The animals (weighing 150–250 g) were kept at 24 ± 2 °C, at 50–60% relative air humidity, and on a 12 h light/dark cycle in the Laboratory Animal House of the Department of Pharmacology and Pharmacotherapy (Medical School, University of Pécs) under standard pathogen-free conditions and were provided with standard rat chow and tap water ad libitum.
# (§6) Stock solution of OTA (10 mg/mL) was prepared in 96 v/v% ethanol (Reanal, Budapest, Hungary). C7S (90 mg/mL) were dissolved in dimethyl sulfoxide (Fluka, Charlotte, NC, US). In the i.v. experiments, the final concentration of dimethyl sulfoxide was uniformly 1.67 v/v % in each solution administered. In the per os experiments, CHR was suspended in physiological saline by using a mortar and pestle.
# In the first experiment, rats were weighed and then treated intravenously through the tail vein with OTA (50 μg/kg, 2 mL/kg, in physiological saline) without or with C7S (1 or 3 mg/kg). Before and after the treatment, rats consumed feed and water ad libitum. Blood samples (approximately 100–150 μL) were collected from the tail vein into heparinized tubes after 2 and 6 h. After 24 h, blood (cardiac puncture) and kidney samples were collected. Plasma and tissue samples were stored at −80 °C until analysis.
# Sample preparation was performed as it has been previously reported.[48] Briefly, after centrifugation, rat plasma was diluted with a 2-fold volume of acetonitrile, and then samples were vortexed, sonicated for 3 min, and centrifuged for 5 min at 14,000g and 4 °C. Thereafter, a 2-fold volume of HPLC eluent (see in Section 2.6) was added to the supernatant. These samples were directly analyzed by HPLC-FLD (see Section 2.6).
# After weighing, kidney samples were homogenized with a 2-fold amount of water employing a Potter–Elvehjem tissue homogenizer. Then, 100 μL of homogenate was diluted with 2-fold volume of acetonitrile, after which these samples were treated the same way as plasma samples (vortexing, sonication, centrifugation, 2-fold dilution with HPLC eluent, and then HPLC-FLD analysis).
# as §4, with “Samples (20 μL) were driven through a SecurityGuard precolumn (C18, 4.0 × 3.0 mm; Phenomenex, Torrance, CA, US) linked to a Kinetex EVO (C18, 150 × 4.6 mm, 5 μm; Phenomenex) analytical column.” left out
# [7] = target: T2, rat serum albumin (RSA); experiment: Fluorescence emission intensity of OTA-RSA with ligands; format: binding; conditions: ligand 0–30 μM; OTA 1.0 μM, RSA 1.5 μM; λex 393 nm, λem 446 nm; inner-filter corrected
# Description: as §1
# [8] = Plasma and kidney levels of OTA after repeated peroral OTA with or without CHR; format: in vivo, Wistar rats; conditions: CHR 1 or 3 mg/kg/day per os with OTA 100 μg/kg/day, three days; sampled on the fourth day
# Description: as §5
# as §6, with “pestle. […]” for “pestle.”
# Sample preparation was performed as it has been previously reported.[48] […] These samples were directly analyzed by HPLC-FLD (see Section 2.6). […]
# OTA was quantified with the previously reported HPLC-FLD method,[48] employing an integrated HPLC system (Jasco, Tokyo, Japan): autosampler (AS-4050), binary pump (PU-4180), fluorescence detector (FP-920), and ChromNAV2 software. […] The fluorescence detection of the mycotoxin was carried out at 383 and 446 nm excitation and emission wavelengths, respectively.
# [9] = target: T2, rat serum albumin (RSA); experiment: Fluorescence anisotropy of OTA-RSA with ligands; format: binding; conditions: ligand 0–30 μM; OTA 1.0 μM, RSA 1.5 μM
# Description: as §1, §2
# [10] = system: HSA; conditions: cited from earlier work
# [11] = system: Bovine serum albumin (BSA); parameters: method as in doi:10.1016/j.jlumin.2013.08.059; conditions: cited from earlier work
# [12] = parameters: method as in PMID 37649524; conditions: cited from earlier work
# [13] = target: T2, rat serum albumin (RSA); parameters: method as in doi:10.1016/j.jlumin.2013.08.059; conditions: cited from earlier work
# [14] = ligand 0–30 μM, OTA 1.0 μM, HSA 1.5 μM
# [15] = C7S 3 mg/kg i.v. with OTA 50 μg/kg i.v., 24 h
Molecule,"effect on fluorescence anisotropy of OTA-HSA, in words [1, 14]","effect on emission signal of OTA-HSA complex, in words [2]","displacement of OTA from RSA (free fraction), in words ([3]; ligand 0–30 μM, overall)","displacement of OTA from HSA (free fraction), in words ([4]; ligand 0–30 μM, overall)","effect on emission signal of OTA-RSA complex, in words [7]","displacement of OTA from HSA (free fraction), in words ([4]; ligand 30 μM)","effect on fluorescence anisotropy of OTA-RSA, in words [9]","effect on fluorescence anisotropy of OTA-HSA, in words ([1]; ligand 15 μM)",also measured
"O=c1cc(-c2ccccc2)oc2cc(OS(=O)(=O)O)cc(O)c12 [C7S, chrysin-7-sulfate]",marked reduction,strong decreases,strongly disrupted,strongly interfered,strong decreases,,,,"displacement of OTA from RSA (free fraction), in words ([3]; ligand 30 μM): almost completely displaced; fold lower Ka of OTA-RSA in the presence of the ligand ([3]; ligand 30 μM): approximately 100 fold; unbound fraction of OTA with HSA ([4]; ligand 15 μM): 55%; fold lower Ka of OTA-HSA in the presence of the ligand ([4]; ligand 30 μM): approximately 100 fold; unbound fraction of OTA with HSA ([4]; ligand 30 μM): 75%; affinity to HSA, fold higher than CHR [5]: 3 fold; effect on plasma levels of OTA, in words ([6]; C7S 1 mg/kg i.v. with OTA 50 μg/kg i.v., 2, 6 and 24 h): did not induce significant changes; effect on kidney levels of OTA, in words ([6]; C7S 1 mg/kg i.v. with OTA 50 μg/kg i.v., 24 h): did not affect; effect on kidney levels of OTA, in words [6, 15]: slightly decreased; effect on plasma levels of OTA, in words [6, 15]: not statistically significant"
"O=c1cc(-c2ccccc2)oc2cc(O)cc(O)c12 [CHR, Chrysin]",only slightly decreased,strong decreases,weak displacing effects,,strong decreases,only minor displacement,only slightly decreased,,"effect on kidney levels of OTA, in words [8]: did not cause statistically significant changes; effect on plasma levels of OTA, in words [8]: did not cause statistically significant changes"
"C[C@@H]1Cc2c(Cl)cc(C(=O)N[C@@H](Cc3ccccc3)C(=O)O)c(O)c2C(=O)O1 [OTA, Ochratoxin A]",,,,,,,,,"association/binding constant of the OTA-HSA complex [10]: exceeds 10^7 L/mol; pKd ([3]; Ka of OTA-RSA complex, no competitor, OTA 1.0 μM, RSA up to 1.5 μM, PBS pH 7.4, 1:1 stoichiometry): 6.47 and 6.46; pKd [4]: 7.40; binding constant of OTA-BSA complex [11]: > 10^6 L/mol; fold weaker complex with BSA compared to HSA [11]: approximately 10 fold; free unbound fraction in the human circulation [12]: 0.02%; plasma elimination half-life in man [12]: approximately 35 days; fold weaker complex with RSA compared to HSA [13]: approximately 10 fold"
C=CC1=C(C)/C(=C/c2[nH]c(Cc3[nH]c(/C=C4\NC(=O)C(C)=C4C=C)c(C)c3CCC(=O)O)c(CCC(=O)O)c2C)NC1=O [bilirubin],"smaller, gradual decreases",remarkable decreases,moderate to strong displacement,,remarkable decreases,only a minor elevation,"smaller, gradual decreases",marked decreases,"displacement of OTA from HSA (free fraction), in words ([4]; ligand 3 and 15 μM): no significant increase"
O=C(CCCCC(=O)Nc1c(I)cc(I)c(C(=O)O)c1I)Nc1c(I)cc(I)c(C(=O)O)c1I [iodipamide],only slightly decreased,only slightly modified,weak displacing effects,,only slightly modified,only minor displacement,only slightly decreased,,
hemin,"smaller, gradual decreases",remarkable decreases,,better displacing effect than bilirubin,remarkable decreases,,"smaller, gradual decreases",marked decreases,"displacement of OTA from RSA (free fraction), in words ([3]; ligand 15 and 30 μM): weak to moderate impacts"
